# Test results reported in patent US20080242688A1, “Method 741” (ASTRAZENECA AB, priority 2007, published 2008).
# “And” between values parts separate entries of the source, which are not always exact repeats. Equal entries are not always repeated. Where two headings read alike, the source gives them in different places.
# How the values were obtained:
# [1] = Intestinal transit (charcoal meal, glass bead); conditions: in vivo; rat, oral; read-out: NOAEL on intestinal motility
# Experimental: Effects of AZD0328 on small intestinal and colorectal motility were investigated in rats using the charcoal meal test and the glass bead test, respectively (Table 3). In the first part, evaluating intestinal transit, a test meal containing charcoal as a non-absorbable marker was administered to rats. In the second part, effects of oral administration of AZD0328 on colorectal transit time was evaluated.
# Single dose PK/TK, dog = assay type: in vivo; conditions: for AUC / Cmax / Tmax: dog, in vivo, po
# Source text: (§1) This section provides a summary of the pharmacokinetic and metabolism properties of AZD0328 derived from in vivo studies. […] The derived PK/TK parameters from these studies are presented in Table 4 for single dose studies (DMR4, 0619LR, 20030191PCR, DMO16, DMB10, DMW12, 50190, 0190DD and 03.330/1), and are presented in Table 5 multiple dose PK/TK studies (DMR4, 0612AR, DMB15, 50190, 0190DD and 0295AD).
# [2] = Single dose PK/TK, rhesus monkey; assay type: in vivo; conditions: for half-life: read-out: T½ (converted); for Vd: read-out: Vss
# Experimental: Pharmacokinetic studies in rats and monkeys were used to estimate the plasma concentrations associated with doses at which AZD0328 improved cognitive performance in these species. For example, in rhesus monkeys, two studies were conducted to determine the pharmacokinetic profile of AZD0328 after administration of 0.048 and 1.7 mg per kg AZD0328. […] We thus estimated the peak plasma concentrations in monkeys that received AZD0328 at 0.00048-0.016 mg per kg to be 0.6-18 nM. Similar studies and calculations in rats, when extended to mice, led us to estimate plasma concentrations at 0.001-0.1 mg per kg body weight to be 0.29-100 nM in these species.
# as §1
# Multiple dose PK/TK, dog = assay type: in vivo; set-up: AUC/dose: unit not given beside the values; conditions: dog 2F+2M, 0190DD; for AUC / Cmax / Tmax: both sexes, dog, in vivo, po
# Source text: as §1
# [3] = both sexes, 1.08 mg/kg, dog 2F+2M, 0190DD, oral 1.08 mg/kg (5 μmol/kg) split in two 6 h apart, capsules, fasted
# [4] = both sexes, 1.08 mg/kg, dog 2F+2M, 0190DD, oral 1.08 mg/kg (5 μmol/kg) split in two 6 h apart, capsules, fed
# [5] = both sexes, 1.08 mg/kg, dog 2F+2M, 0190DD, oral 1.08 mg/kg (5 μmol/kg) split in two 6 h apart, solution, fasted
# [6] = both sexes, in vivo, rhesus monkey 2M+2F, 03.330/1, iv 1.15 mg/kg (5.32 μmol/kg)
# [7] = both sexes, in vivo, rhesus monkey 2M+2F, 03.330/1, iv 3.85 mg/kg (17.8 μmol/kg)
# [8] = both sexes, plasma, im, rhesus monkey 2F+2M, A7AGBU1006, intramuscular 1.7 mg/kg (8 μmol/kg)
# [9] = both sexes, plasma, rhesus monkey 2M+2F, 03.330/1, iv 0.385 mg/kg (1.78 μmol/kg)
# [10] = male, plasma, im, rhesus monkey 3M, A7AGBU1010, intramuscular 0.048 mg/kg (0.22 μmol/kg)
# [11] = 34.6 mg/kg, 34.6 mg/kg (160 μmol/kg) split in two 6 h apart, capsules fasted, day 1
# [12] = 34.6 mg/kg, 34.6 mg/kg (160 μmol/kg) split in two 6 h apart, capsules fasted, day 7
# [13] = 34.6 mg/kg, 34.6 mg/kg (160 μmol/kg) split in two 6 h apart, solution fasted, day 1
# [14] = 34.6 mg/kg, 34.6 mg/kg (160 μmol/kg) split in two 6 h apart, solution fasted, day 7
# [15] = 138 mg/kg, 138 mg/kg (640 μmol/kg) split in two 6 h apart, capsules fed, day 1
# [16] = 138 mg/kg, 138 mg/kg (640 μmol/kg) split in two 6 h apart, capsules fed, day 7
smiles,measurement,setting,value
"c1cnc2c(c1)C[C@@]1(CN3CCC1CC3)O2 [AZD0328, (R)-Spiro[1-azabicyclo[2.2.2]octane-3,2′(3′H)-furo[2,3-b]pyridine]]",NOAEL,[1],5.6 mg/kg
same,AUC,"Single dose PK/TK, dog; [3]",68.1 ng·h/mL and 0.315 µM·h
same,Cmax,"Single dose PK/TK, dog; [3]",19.2 ng/mL and 89 nM
same,Tmax,"Single dose PK/TK, dog; [3]",1 to 3 h
same,AUC,"Single dose PK/TK, dog; [4]",177 ng·h/mL and 0.818 µM·h
same,Cmax,"Single dose PK/TK, dog; [4]",26.9 ng/mL and 124 nM
same,Tmax,"Single dose PK/TK, dog; [4]",0.5 to 6 h
same,AUC,"Single dose PK/TK, dog; [5]",104 ng·h/mL and 0.483 µM·h
same,Cmax,"Single dose PK/TK, dog; [5]",33.1 ng/mL and 153 nM
same,Tmax,"Single dose PK/TK, dog; [5]",0.5 h
same,F,"Single dose PK/TK, dog; dog 4M, 0279ZD, single oral 17.3 mg/kg (80 μmol/kg)",0.146 ± 0.043%
same,F,"Single dose PK/TK, dog; dog 4M, 0279ZD, single oral 34.6 mg/kg (160 μmol/kg)",0.239 ± 0.099%
same,AUC,"Single dose PK/TK, dog; male, 17.3 mg/kg, dog 4M, 0279ZD, single oral 17.3 mg/kg (80 μmol/kg)",2530 ng·h/mL and 11.7 µM·h
same,AUC,"Single dose PK/TK, dog; male, 34.6 mg/kg, dog 4M, 0279ZD, single oral 34.6 mg/kg (160 μmol/kg)",8280 ng·h/mL and 38.3 µM·h
same,half-life,"[2]; both sexes, in vivo, rhesus monkey 2M+2F, 03.330/1, iv 0.385 mg/kg (1.78 μmol/kg)",1.76 ± 0.43 h
same,clearance,[2]; [6],14.2 mL/min/kg
same,half-life,[2]; [6],1.96 ± 0.63 h
same,Vd,[2]; [6],2.52 ± 1.64 L/kg
same,clearance,[2]; [7],14.5 mL/min/kg
same,half-life,[2]; [7],2.14 ± 0.39 h
same,Vd,[2]; [7],2.85 ± 1.6 L/kg
same,AUC,[2]; [8],634 ± 81 ng·h/mL
same,Tmax,[2]; [8],0.25 h
same,Cmax,"[2]; both sexes, plasma, im, rhesus monkey 2F+2M, A7AGBU1006, intramuscular 1.7 mg/kg (8 μmol/kg), read-out: Cmax",430 ng/mL and 1.99 µM
same,half-life,[2]; [8],0.97 ± 0.12 h
same,clearance,[2]; [9],21 mL/min/kg
same,Vd,[2]; [9],3.29 ± 2.32 L/kg
same,Tmax,[2]; [10],0.25 h
same,Cmax,"[2]; male, plasma, im, rhesus monkey 3M, A7AGBU1010, intramuscular 0.048 mg/kg (0.22 μmol/kg), read-out: Cmax",16.1 ng/mL and 74.6 nM
same,half-life,[2]; [10],0.85 ± 0.23 h
same,estimated peak plasma concentrations,"[2]; monkeys, 0.00048-0.016 mg per kg",0.6 to 18 nM
same,Cmax,"[2]; rhesus monkey, plasma, intramuscular, 0.016 mg/kg, rhesus monkeys, read-out: Cmax at NOAEL for behavioral side effects",18 nM
same,estimated free plasma Cmax,"[2]; rhesus monkeys, 0.016 mg/kg (NOAEL)",18 nM
same,AUC,"Multiple dose PK/TK, dog; [11]",4430 ng·h/mL and 20.5 µM·h
same,Cmax,"Multiple dose PK/TK, dog; [11]",694 ng/mL and 3.21 µM
same,Tmax,"Multiple dose PK/TK, dog; [11]",1 to 3 h
same,AUC,"Multiple dose PK/TK, dog; [12]",6970 ng·h/mL and 32.2 µM·h
same,Cmax,"Multiple dose PK/TK, dog; [12]",2120 ng/mL and 9.79 µM
same,Tmax,"Multiple dose PK/TK, dog; [12]",1 h
same,AUC,"Multiple dose PK/TK, dog; [13]",4890 ng·h/mL and 22.6 µM·h
same,Cmax,"Multiple dose PK/TK, dog; [13]",1130 ng/mL and 5.2 µM
same,Tmax,"Multiple dose PK/TK, dog; [13]",0.5 h
same,AUC,"Multiple dose PK/TK, dog; [14]",7200 ng·h/mL and 33.3 µM·h
same,Cmax,"Multiple dose PK/TK, dog; [14]",1560 ng/mL and 7.22 µM
same,Tmax,"Multiple dose PK/TK, dog; [14]",0.5 to 1 h
same,AUC,"Multiple dose PK/TK, dog; [15]",11900 ng·h/mL and 55 µM·h
same,Cmax,"Multiple dose PK/TK, dog; [15]",1520 ng/mL and 7.04 µM
same,Tmax,"Multiple dose PK/TK, dog; [15]",1 to 6 h
same,AUC,"Multiple dose PK/TK, dog; [16]",7160 ng·h/mL and 33.1 µM·h
same,Cmax,"Multiple dose PK/TK, dog; [16]",1360 ng/mL and 6.27 µM
same,Tmax,"Multiple dose PK/TK, dog; [16]",0.5 to 6 h
same,AUC/dose,"Multiple dose PK/TK, dog; 34.6 mg/kg (160 μmol/kg) split in two 6 h apart, capsules fasted, day 1",0.128 ± 0.087
